Measured values reported in US20070010548A1, “Compounds having inhibitive activity of phosphatidylinositol 3-kinase and methods of use thereof” (ZENTARIS GmbH, priority 2003, published 2007).
Where two headings read alike, the source gives them in different places.

How the values were obtained:
SKOV3 cells = assay: MTT cell proliferation/viability assay, SKOV3 ovarian cancer cells; format: cell-based; details: Homo sapiens
Method: (§1) The ovarian cancer cell line SKOV3 is not altered in PI 3-K signaling and should be less sensitive to the anti-proliferative effects produced by treatment with PI 3-K inhibitors, while the OVCAR3 cell line, which is altered in PI 3-K signaling, via amplification of PI 3-K activity, should be sensitive. SKOV3 cells were seeded in 96-well cell culture plates (Greiner) at a density of 20,000 cells per well in McCoys 5A media (GibcoBRL) with 10% fetal calf serum and 20 mM L-glutamine. OVCAR3 cells were seeded at a density of 15,000 cells per well in RPMI 1640 media (GibcoBRL) containing 20 mM 1-glutamine, 0.01 ng/ml bovine insulin, 10 mM Hepes pH 7.4, 1 mM sodium pyruvate, 2.5 g/L glucose, and 20% fetal calf serum. After 24 hours, compounds were added to cell media to a final concentration of 1 μM, and the cells were grown in the presence of the compounds for 48 hours, in media containing 0.5% fetal calf serum. Viability was determined using a MTT cell proliferation assay (R and D Systems) and comparison to DMSO alone controls (100% viability). Compounds which result in reduced viability may act either by inhibiting cell proliferation or by inducing apoptosis (programmed cell death).
(§2) Many of these also show similar selective effects on cell growth. Table 2 summarizes the results of two separate cell proliferation experiments for selected compounds of the present invention.

OVCAR3 cells = assay: MTT cell proliferation/viability assay, OVCAR3 ovarian cancer cells; format: cell-based; details: Homo sapiens
Method: as §1, §2

[1] = test system: tumor cells altered in PI 3-K/PTEN; assay: Cellular growth inhibition assays on tumor cells altered in PI 3-K/PTEN; format: cell-based; details: for IC50: approximate, read-out: Approx. mIC50 in cellular assays
Method: as §1
Selected compounds were evaluated against paired ovarian cancer cell lines at a range of concentrations to determine effective concentrations for growth inhibition.
MDA-MB-468 and MDA-MB-231 cells were seeded in 96-well cell culture plates (Greiner) at a density of 20,000 cells per well in RMPI media (GibcoBRL) with 10% fetal calf serum and 20 mM L-glutamine. After 24 hours, compounds were added to cell media to a final concentrations ranging from 10 nM to 100 μM, and the cells were grown in the presence of the compounds for 48 hours in RMPI media containing 0.5% fetal calf serum and 20 mM L-glutamine. Viability was determined using a MTT cell proliferation assay (R and D Systems) and comparison to DMSO alone controls (100% viability). Compounds which result in reduced viability may act either by inhibiting cell proliferation or by inducing apoptosis (programmed cell death). […] Selected compounds were evaluated against the paired breast cancer cell lines at a range of concentrations to determine effective concentrations for growth inhibition.
Table 3 summarizes the data for several compounds of this structural group, including the IC50 for inhibition of enzyme activity in vitro, cellular mIC50 and anti-proliferative activity against tumor cells altered in PI 3-K mediated signaling, and effects on cellular levels of phospho-Akt.

MA-MB-468 cells = assay: Three dimensional matrix model of tumor cell growth; format: cell-based; details: Homo sapiens, read-out: Percent Inhibition of Tumor Cell Viability
Method: PI 3-K inhibitors are assayed for effects on tumor cells grown in three-dimensional matrix that more closely mimics the environment of a tumor than other cell culture models. MA-MB-468 cells are mixed in a matrix solution, such as Matrigel (13D Biosciences) at 2×10 ^6 cells/ml and 100 μl of this mixture added to each well of a 24 well cell culture plate. Each well is 6.5 mm in diameter and 2×10^5 cells are added per well. Once the matrix is solidified, RMPI media containing 10% fetal calf serum and 2 mM L-glutamine is added to each well. After approximately 14 days of culture, the compounds are added to cell media at final concentrations ranging from 10 nM to 100 μM, and the cells are grown in the presence of the compounds for 7 days in RMPI media containing 0.5% fetal calf serum and 20 mM L-glutamine.
Following this treatment, cell growth in the three dimensional matrix can be measured using a cell viability assay such as the CellTiter 96 One Solution Cell Proliferation Assay (Promega, G3582). […] of assay solution is added per well, the cells are incubated for 3 hours. Absorbance at 550 nm is determined for each well and used directly as being equivalent of cell number. In addition, live and dead cells can be distinguished and observed using fluorescence microscopy after staining with Fluorescein diacetate (Sigma), which labels live cells, and propidium iodide (Sigma), which labels dead cells.
The PI 3-K inhibitors of the present invention show anti-proliferative effects in this model of tumor cell growth, as shown by the representative data in Table 6, which compares the anti-proliferative effects of one inhibitor compared to the effects of the benchmark PI 3-K inhibitor LY294002. The PI 3-K inhibitors of the present invention also show enhanced anti-proliferative activity when combined with other cancer drugs, for example paclitaxel or doxorubicin.

PI 3-K = details: background literature; read-out: IC50 (inhibits PI 3-K); cited from earlier work
[2] = SK-OV-3, 48 hours, MTT, DMSO alone controls = 100% viability, Trial 1, read-out: Trial 1 SKOV-3 (viability)
[3] = SK-OV-3, 48 hours, MTT, DMSO alone controls = 100% viability, Trial 2, read-out: Trial 2 SKOV-3 (viability)
[4] = SK-OV-3, average of Trial 1 and Trial 2, 48 hours, read-out: Average SKOV3 (viability)
[5] = OVCAR-3, 48 hours, MTT, DMSO alone controls = 100% viability, Trial 1, read-out: Trial 1 OVCAR3 (viability)
[6] = OVCAR-3, 48 hours, MTT, DMSO alone controls = 100% viability, Trial 2, read-out: Trial 2 OVCAR3 (viability)
[7] = OVCAR-3, average of Trial 1 and Trial 2, 48 hours, read-out: average OVCAR-3 (viability)

Row | Compound | viability at 1 µM (SKOV3 cells; [2]) [%] | viability at 1 µM (SKOV3 cells; [3]) [%] | viability at 1 µM (SKOV3 cells; [4]) [%] | viability at 1 µM (OVCAR3 cells; [5]) [%] | viability at 1 µM (OVCAR3 cells; [6]) [%] | viability at 1 µM (OVCAR3 cells; [7]) [%] | Anti-proliferative effects on tumor cells altered in PI 3-K/PTEN [1] | IC50 [1] [µM] | cytotoxicity at 1 µM (MA-MB-468 cells; Concentration 1 μM) [%] | cytotoxicity at 5 µM (MA-MB-468 cells; Concentration 5 μM) [%] | cytotoxicity at 10 µM (MA-MB-468 cells; Concentration 10 μM) [%] | cytotoxicity at 50 µM (MA-MB-468 cells; Concentration 50 μM) [%] | IC50 (PI 3-K) [µM]
1 | CC1(C)CC(=O)C2=C(C1)Nc1c(c(-c3ccccc3)nn1-c1ccc(F)cc1)C2c1ccc(C(C)(C)C)cc1 (stereo not drawn) [Compound 963924] | 100 | 100 | 100 | 61 | 66.4 | 63.7 | Yes | < 20 | – | – | – | – | –
2 | CCOc1ccc(C2C3=C(CC(C)(C)CC3=O)Nc3c2c(C(C)(C)C)nn3C(C)(C)C)cc1 (stereo not drawn) [Compound 963977] | 98 | 81.7 | 89.8 | 41 | 59.6 | 50.3 | – | – | – | – | – | – | –
3 | CCOc1ccc(C2C3=C(CC(C)(C)CC3=O)Nc3c2c(C(C)(C)C)nn3-c2ccc(Cl)cc2)cc1 (stereo not drawn) [Compound 964127] | 100 | 100 | 100 | 42 | 76.2 | 59.1 | Yes | < 20 | – | – | – | – | –
4 | COc1cc(OC)cc(C2C3=C(CC(C)(C)CC3=O)Nc3c2c(C(C)(C)C)nn3-c2ccc(Cl)cc2)c1 (stereo not drawn) [Compound 964144] | 100 | 100 | 100 | 54 | 66.2 | 60.1 | Yes | < 20 | – | – | – | – | –
5 | Cc1cccc(-n2nc(C(C)(C)C)c3c2NC2=C(C(=O)CC(C)(C)C2)C3c2ccc(C(C)(C)C)cc2)c1C (stereo not drawn) [Compound 964336] | 96 | 83 | 89.5 | 32 | 56 | 44 | Yes | < 20 | – | – | – | – | –
6 | Cc1ccc(C2C3=C(CC(C)(C)CC3=O)Nc3c2c(C(C)(C)C)nn3-c2cccc(F)c2)cc1 (stereo not drawn) [Compound 964352] | 93 | 74 | 83.5 | 33 | 52.9 | 43 | Yes | < 20 | – | – | – | – | –
7 | O=c1cc(N2CCOCC2)oc2c(-c3ccccc3)cccc12 [LY294002, reference compound] | – | – | – | – | – | – | – | – | < 5 | 50 | 60 | 90 | –
8 | O=c1c(O)c(-c2ccc(O)c(O)c2)oc2cc(O)cc(O)c12 [quercetin] | – | – | – | – | – | – | – | – | – | – | – | – | 3.8
